Measurements taken from patent publication US8158635B2, “Solid forms comprising 4-[9-(tetrahydro-furan-3-yl)-8-(2,4,6-trifluoro-phenylamino)-9H-purin-2-ylamino]-cyclohexan-1-ol, compositions thereof, and uses therewith” (Signal Pharmaceuticals, LLC, priority 2006, dated 2012).

Experiments:
Type in all cases: physicochemical
[1] = Moisture sorption analysis (Dynamic Vapor Sorption)
Procedure: (§1) In certain embodiments, Form A of the free base of Compound I is stable during drying at temperatures up to about 40-45° C. In certain embodiments, the crystallization and/or recrystallization of Form A of the free base of Compound I provides an effective means of purification by removing or reducing the levels of chemical impurities (such as, e.g., one or more of the chemical compounds provided in FIG. 14) in the resulting material. In certain embodiments, Form A of the free base of Compound I is substantially pure. […] In certain embodiments, Form A of the free base of Compound I is stable upon compression.
Hygroscopicity (moisture sorption desorption) was determined by Dynamic Vapor Sorption (DVS). A solid sample comprising Compound I ranging from 10 to 50 mg was placed into the DVS instrument at 0% relative humidity (RH). The RH was increased from 0% to 80% or 95%. The RH was then decreased in a similar manner to accomplish a full sorption desorption cycle.

Stability during drying = conditions: temperatures up to about 40-45° C.
Procedure: as §1
Crude 4-[9-(tetrahydro-furan-3-yl)-8-(2,4,6-trifluoro-phenylamino)-9H-purin-2-ylamino]-cyclohexan-1-ol (“Compound I”) (5 g) was dissolved in ethanol (35 ml, 7 vol) at reflux (78-82° C.). Water (75 ml, 15 vol) was added, maintaining the temperature above 75° C. The solution was seeded (0.5-1%) and allowed to cool to ambient temperature (20-25° C.) over 4-6 h. The product was collected by filtration and washed with water (25 ml, 5 vol) then dried (18 h, 40-45° C.) to yield Form A of the free base of Compound I as an off-white crystalline solid. Form A is the imine tautomer of 4-[9-(terahydro-furan-3-yl)-8-(2,4,6-trifluoro-phenylamino)-9H-purin-2-ylamino]-cyclonhexan-1-ol having the structure: […]

[2] = Equilibration of solid form in solvent for 4 weeks at 40° C., resulting form by XRPD
Procedure: Equilibration slurry and evaporation experiments were carried out by adding an excess of Compound I free base or HCl salt to 2 mL of solvent. […] Upon reaching equilibrium, the saturated supernatant solution was removed and allowed to evaporate slowly in an open vial under nitrogen at 25° C. or 50° C., respectively. The slurry resulting from the equilibration was filtered and air-dried. X-ray powder diffraction (XRPD) measurements were performed in accordance with United States Pharmacopeia (USP) monograph <941> entitled “X-ray Diffraction” (See, e.g., The United States Pharmacopeia, The National Formulary, 2003, The Unites States Pharmacopeial Convention, Inc., Rockville, Md., 2002, which is herein incorporated by reference in its entirety). A Thermo ARL X'TRA X-ray powder diffractometer (Thermo Electron Corp., Waltham, Mass.), equipped with Nickel-filtered Cu Kα radiation at 1.54 Å, was used for XRPD measurements from about 1.5 °2θ to about 40 °2θ, with a step size of about 0.020°, a count time of about 0.50 seconds per step, and a step scan rate of about 2.40°/min. The instrument was equipped with a fine focus X-ray tube. The voltage and amperage were set at 45 kV and 40 mA, respectively. The divergence slits were set at 0.5 mm and 0.2 mm. Diffracted radiation was measured using a Peltier-cooled Si (Li) solid-state detector. Representative XRPD patterns were presented displaying intensity (counts per second) versus position (°2θ). A sintered alumina standard was used to check peak positions. Peak positions may vary from sample to sample by approximately ±0.1 °2θ. Variation in peak position may depend upon multiple factors, including particle size, sample preparation, data collection temperature and parameters. Variation in peak intensity may occur, e.g., as a result of preferred orientation and/or variation in crystal habit.

[3] = Compression testing, form checked by XRPD; conditions: about 2000-psi pressure for about 1 min
Procedure: as §1
X-ray powder diffraction (XRPD) measurements were performed in accordance with United States Pharmacopeia (USP) monograph <941> entitled “X-ray Diffraction” (See, e.g., The United States Pharmacopeia, The National Formulary, 2003, The Unites States Pharmacopeial Convention, Inc., Rockville, Md., 2002, which is herein incorporated by reference in its entirety). A Thermo ARL X'TRA X-ray powder diffractometer (Thermo Electron Corp., Waltham, Mass.), equipped with Nickel-filtered Cu Kα radiation at 1.54 Å, was used for XRPD measurements from about 1.5 °2θ to about 40 °2θ, with a step size of about 0.020°, a count time of about 0.50 seconds per step, and a step scan rate of about 2.40°/min. […] Diffracted radiation was measured using a Peltier-cooled Si (Li) solid-state detector. […]

## O[C@H]1CC[C@H](Nc2ncc3nc(Nc4c(F)cc(F)cc4F)n([C@H]4CCOC4)c3n2)CC1 (stereo in doubt) [Form A of the Free Base of Compound I, 4-[9-(tetrahydro-furan-3-yl)-8-(2,4,6-trifluoro-phenylamino)-9H-purin-2-ylamino]-cyclohexan-1-ol]
[1]; after sorption/desorption cycle
  XRPD pattern following moisture sorption analysis: substantially unchanged
[1]; increased from about 0% to about 80% RH
  mass gain in moisture sorption analysis: about 0.5%
[1]; increased from about 0% to about 95% RH
  mass gain in moisture sorption analysis: about 1.4%
Stability during drying
  stability during drying: stable
[2]; Equilibrate Form A in 2-Propanol for 4 weeks at 40° C.
  Resulting Form by XRPD: Compound I Free Base Form A
[2]; Equilibrate Form A in Acetone for 4 weeks at 40° C.
  Resulting Form by XRPD: Compound I Free Base Form A
[2]; Equilibrate Form A in Acetonitrile for 4 weeks at 40° C.
  Resulting Form by XRPD: Compound I Free Base Form A
[2]; Equilibrate Form A in Ethyl acetate for 4 weeks at 40° C.
  Resulting Form by XRPD: Compound I Free Base Form A
[2]; Equilibrate Form A in Heptane for 4 weeks at 40° C.
  Resulting Form by XRPD: Compound I Free Base Form A
[2]; Equilibrate Form A in MTBE for 4 weeks at 40° C.
  Resulting Form by XRPD: Compound I Free Base Form A
[2]; Equilibrate Form A in Toluene for 4 weeks at 40° C.
  Resulting Form by XRPD: Compound I Free Base Form A
[2]; Equilibrate Form A in Water for 4 weeks at 40° C.
  Resulting Form by XRPD: Compound I Free Base Form A
[3]
  XRPD pattern after compression testing: substantially unchanged
